Data from US20230390176A1, “Cosmetic Skin and Medical Cream” (Protecta-Skincare, Inc., priority 2021, published 2023).

Key:
[1] = test system: human keratinocytes; assay: lifespan of human keratinocytes with YEL002; type: cell-based; conditions: application of the active ingredient YEL002
[2] = disclosed in U.S. Pat. No. 9,045,474; cited from earlier work

## COc1ccc2cc(-c3nc4ccc(C)cn4c3NCc3ccco3)c(=O)[nH]c2c1 [YEL002]
[1]
  human keratinocytes live longer (anti-aging): 15%
[2]
  mitigating tissue damage induced by an agent: effective in mitigating tissue damage
